Assay results published in ChEMBL document CHEMBL3596105, “Phospholipid derivatives of cladribine and fludarabine: synthesis and biological properties” (Bioorg Med Chem, 2015).

Experiments:
[1] = tested on: MCF7; experiment: Antiproliferative activity against human MCF7 cells assessed as cell growth inhibition after 48 hrs by MTT assay; assay type: functional, cell-based; conditions: MCF7, 48 h
[2] = tested on: K562; experiment: Antiproliferative activity against human K562 cells assessed as cell growth inhibition after 48 hrs by MTT assay; assay type: functional, cell-based; conditions: K562, 48 h
[3] = Antiproliferative activity against human MOLT3 cells assessed as cell growth inhibition after 48 hrs by MTT assay; assay type: functional, cell-based; conditions: MOLT-3, 48 h
[4] = Antiproliferative activity against human KG1 cells assessed as cell growth inhibition after 48 hrs by MTT assay; assay type: functional, cell-based; conditions: KG-1, 48 h
[5] = tested on: ZR-75-1; experiment: Antiproliferative activity against human ZR-75-1 cells assessed as cell growth inhibition after 48 hrs by MTT assay; assay type: functional, cell-based; conditions: ZR-75-1, 48 h
[6] = Antiproliferative activity against human RPMI8226 cells assessed as cell growth inhibition after 48 hrs by MTT assay; assay type: functional, cell-based; conditions: RPMI-8226, 48 h
[7] = Antiproliferative activity against human SKHEP1 cells assessed as cell growth inhibition after 48 hrs by MTT assay; assay type: functional, cell-based; conditions: SK-HEP1, 48 h
[8] = Antiproliferative activity against human SK-UT-1B cells assessed as cell growth inhibition after 48 hrs by MTT assay; assay type: functional, cell-based; conditions: Skut1B
[9] = tested on: Mus musculus; experiment: Cmin in ICR mouse assessed as F-ara-A concentration at 120.4 mg/kg, ig administered as single dose after 24 hrs by HPLC analysis; assay type: ADME, organism-based; conditions: in vivo, po
[10] = tested on: K562; experiment: Antiproliferative activity against human K562 cells assessed as cell growth inhibition after 72 hrs by MTT assay; assay type: functional, cell-based; conditions: K562, 72 h
[11] = tested on: HL-60; experiment: Antiproliferative activity against human HL60 cells assessed as cell growth inhibition after 72 hrs by MTT assay; assay type: functional, cell-based; conditions: HL-60, 72 h
[12] = tested on: Rattus norvegicus; experiment: Prodrug conversion in Wistar rat assessed as slow F-ara-A release into bloodstream at 72 mg/kg, ig administered as single dose by HPLC analysis; assay type: ADME, organism-based; conditions: in vivo, po
[13] = Antiproliferative activity against human M-HeLa cells assessed as cell growth inhibition after 48 hrs by MTT assay; assay type: functional, cell-based
[14] = tested on: Rattus norvegicus; experiment: Prodrug conversion in Wistar rat assessed as smooth increase in F-ara-A concentration in serum at 72 mg/kg, ig administered as single dose by HPLC analysis; assay type: ADME, organism-based; conditions: in vivo, po
[15] = tested on: Raji; experiment: Antiproliferative activity against human Raji cells assessed as cell growth inhibition after 48 hrs by MTT assay; assay type: functional, cell-based
[16] = Antiproliferative activity against human KG1 cells assessed as cell growth inhibition after 72 hrs by MTT assay; assay type: functional, cell-based; conditions: KG-1, 72 h
[17] = tested on: HL-60; experiment: Antiproliferative activity against human HL60 cells assessed as cell growth inhibition after 48 hrs by MTT assay; assay type: functional, cell-based; conditions: HL-60, 48 h
[18] = tested on: Mus musculus; experiment: Tmax in ICR mouse assessed as F-ara-A concentration at 120.4 mg/kg, ig administered as single dose by HPLC analysis; assay type: ADME, organism-based; conditions: in vivo, po
[19] = tested on: MCF7; experiment: Antiproliferative activity against human MCF7 cells assessed as cell growth inhibition after 72 hrs by MTT assay; assay type: functional, cell-based; conditions: MCF7, 72 h
[20] = tested on: Rattus norvegicus; experiment: Prodrug conversion in Wistar rat assessed as prolonged serum circulation of liberated F-ara-A at 72 mg/kg, ig administered as single dose by HPLC analysis; assay type: ADME, organism-based; conditions: in vivo, po
[21] = tested on: Mus musculus; experiment: Apparent half-life in ICR mouse assessed as F-ara-A content at 120.4 mg/kg, ig administered as single dose by HPLC analysis; assay type: ADME, organism-based; conditions: in vivo, po
[22] = tested on: Mus musculus; experiment: Cmax in ICR mouse assessed as F-ara-A concentration at 120.4 mg/kg, ig administered as single dose by HPLC analysis; assay type: ADME, organism-based; parameters: dose 120.4 mg/kg, route intragastric; conditions: in vivo, po
[23] = tested on: Mus musculus; experiment: Apparent half-life in ICR mouse assessed as F-ara-A content at 50 mg/kg, ig administered as single dose by HPLC analysis; assay type: ADME, organism-based; conditions: in vivo, po
[24] = tested on: Mus musculus; experiment: Cmax in ICR mouse assessed as F-ara-A concentration at 50 mg/kg, ig administered as single dose by HPLC analysis; assay type: ADME, organism-based; parameters: dose 50 mg/kg, route intragastric; conditions: in vivo, po
[25] = tested on: Mus musculus; experiment: Cmin in ICR mouse assessed as F-ara-A concentration at 50 mg/kg, ig administered as single dose after 24 hrs by HPLC analysis; assay type: ADME, organism-based; conditions: in vivo, po
[26] = tested on: Mus musculus; experiment: Tmax in ICR mouse assessed as F-ara-A concentration at 50 mg/kg, ig administered as single dose by HPLC analysis; assay type: ADME, organism-based; conditions: in vivo, po
[27] = tested on: Rattus norvegicus; experiment: Prodrug conversion in Wistar rat assessed as prolonged serum circulation of liberated F-ara-A at 77 mg/kg, ig administered as single dose by HPLC analysis; assay type: ADME, organism-based; conditions: in vivo, po
[28] = tested on: Rattus norvegicus; experiment: Prodrug conversion in Wistar rat assessed as smooth increase in F-ara-A concentration in serum at 77 mg/kg, ig administered as single dose by HPLC analysis; assay type: ADME, organism-based; conditions: in vivo, po
[29] = tested on: Rattus norvegicus; experiment: Prodrug conversion in Wistar rat assessed as slow F-ara-A release into bloodstream at 77 mg/kg, ig administered as single dose by HPLC analysis; assay type: ADME, organism-based; conditions: in vivo, po
[30] = Antiproliferative activity against human SK-UT-1B cells assessed as cell growth inhibition after 72 hrs by MTT assay; assay type: functional, cell-based; conditions: Skut1B
[31] = Antiproliferative activity against human M-HeLa cells assessed as cell growth inhibition after 72 hrs by MTT assay; assay type: functional, cell-based
[32] = tested on: ZR-75-1; experiment: Antiproliferative activity against human ZR-75-1 cells assessed as cell growth inhibition after 72 hrs by MTT assay; assay type: functional, cell-based; conditions: ZR-75-1, 72 h

SMILES	IC50 [1]	IC50 [2]	IC50 [3]	IC50 [4]	IC50 [5]	IC50 [8]	IC50 [13]	IC50 [15]	IC50 [16]	IC50 [17]	also measured
CCCCCCCCCCCCCCCC(=O)OCC(COP(=O)(O)OC[C@H]1O[C@@H](n2cnc3c(N)nc(Cl)nc32)C[C@@H]1O)OC(=O)CCCCCCCCCCCCCCC (some centres not stated)	> 100 µM	> 100 µM	> 100 µM								
CCCCCCCCCCCCCC(=O)OCC(COP(=O)(O)OC[C@H]1O[C@@H](n2cnc3c(N)nc(Cl)nc32)C[C@@H]1O)OC(=O)CCCCCCCCCCCCC (some centres not stated)	> 100 µM	50 µM	8 µM	17 µM	> 100 µM	> 100 µM					IC50 [6]: > 100 µM; IC50 [7]: > 100 µM
CCCCCCCCCCCCCCCC(=O)OCC(COC(=O)CCCCCCCCCCCCCCC)OP(=O)(O)OC[C@H]1O[C@@H](n2cnc3c(N)nc(Cl)nc32)C[C@@H]1O	> 100 µM	> 100 µM	> 100 µM								
CCCCCCCCCCCCCC(=O)OCC(COP(=O)([O-])OC[C@H]1O[C@@H](n2cnc3c(N)nc(F)nc32)[C@@H](O)[C@@H]1O)OC(=O)CCCCCCCCCCCCC.[Na+] (some centres not stated)	45 µM	45 µM	> 100 µM	55 µM	> 100 µM	> 100 µM	> 100 µM	> 100 µM	9 µM	30 µM	Cmin [9]: 199 ng/mL; IC50 [10]: > 100 µM; IC50 [11]: 16 µM; Drug metabolism [12]: metabolite_detected; Drug metabolism [14]: metabolite_detected; Tmax [18]: 2.8 h; IC50 [19]: 18 µM; Drug metabolism [20]: metabolite_detected; t1/2(app) [21]: 14.2 h; Cmax [22]: 1613 ng/mL
Nc1nc(F)nc2c1ncn2[C@@H]1O[C@H](COP(=O)(O)O)[C@@H](O)[C@@H]1O [FLUDARABINE PHOSPHATE]	0.13 µM	0.4 µM	0.95 µM	0.15 µM	0.6 µM	6 µM	2 µM	0.4 µM		0.09 µM	t1/2(app) [23]: 1.5 h; Cmax [24]: 8989 ng/mL; Cmin [25]: 13 ng/mL; Tmax [26]: 0.9 h
CCCCCCCCCCCCCCCC(=O)OCC(COC(=O)CCCCCCCCCCCCCCC)OP(=O)([O-])OC[C@H]1O[C@@H](n2cnc3c(N)nc(F)nc32)[C@@H](O)[C@@H]1O.[Na+]	> 100 µM	> 100 µM	> 100 µM	> 100 µM	> 100 µM	> 100 µM	> 100 µM	> 100 µM		> 100 µM	Drug metabolism [27]: metabolite_detected; Drug metabolism [28]: metabolite_detected; Drug metabolism [29]: metabolite_detected
CCCCCCCCCCCCCC(=O)OCC(COC(=O)CCCCCCCCCCCCC)OP(=O)(O)OC[C@H]1O[C@@H](n2cnc3c(N)nc(Cl)nc32)C[C@@H]1O	> 100 µM	> 100 µM	> 100 µM								
CCCCCCCCCCCCCCCC(=O)OCC(COP(=O)([O-])OC[C@H]1O[C@@H](n2cnc3c(N)nc(F)nc32)[C@@H](O)[C@@H]1O)OC(=O)CCCCCCCCCCCCCCC.[Na+] (some centres not stated)	> 100 µM	> 100 µM	> 100 µM	> 100 µM	> 100 µM	> 100 µM	> 100 µM	> 100 µM	75 µM	> 100 µM	Drug metabolism [27]: metabolite_detected; Drug metabolism [28]: metabolite_detected; Drug metabolism [29]: metabolite_detected
CCCCCCCCCCCCCC(=O)OCC(COC(=O)CCCCCCCCCCCCC)OP(=O)([O-])OC[C@H]1O[C@@H](n2cnc3c(N)nc(F)nc32)[C@@H](O)[C@@H]1O.[Na+]	> 100 µM	75 µM	> 100 µM	> 100 µM	> 100 µM	> 100 µM	> 100 µM	> 100 µM	35 µM	80 µM	IC50 [30]: 55 µM; IC50 [10]: > 100 µM; IC50 [31]: 45 µM; IC50 [11]: 65 µM; Drug metabolism [12]: metabolite_detected; Drug metabolism [14]: metabolite_detected; IC50 [32]: 75 µM; IC50 [19]: 45 µM; Drug metabolism [20]: metabolite_detected
Nc1nc(Cl)nc2c1ncn2[C@H]1C[C@H](O)[C@@H](CO)O1 [CLADRIBINE]	45 µM	10 µM	2.3 µM	0.2 µM	> 100 µM	1 µM					IC50 [6]: 6 µM; IC50 [7]: 4 µM
